# Laboratory results from US11034702B2, “Thienoisoquinolines and their derivatives for the treatment of cancer” (VALORBEC, SOCIÉTÉ EN COMMANDITE, priority 2016, dated 2021).
# Legend:
# [1] = tested on: MCF-10A cells; test: Mitotic spindle phenotype in MCF-10A cells; assay type: cell-based; details: 300 nM, 6-8 hours
# Description: FIG. 2A) is a line graph showing the percentage of HCT116 (p53−/−) cells, A549 cells, HeLa cells and H1299 cells in mitosis after treatment with various concentrations of C75 for one population doubling time. All of the cell lines show an increase in the proportion of mitotic cells after treatment with 200 nM C75. The bars indicate standard deviation. […] While the mitotic spindles were not dramatically altered by C75 in HFF1 cells, they were monopolar (as shown) or fragmented in the other cell types. […] The mitotic spindles were more strongly fragmented after C75 treatment in these cells vs. the cells in FIG. 2B). […] While mitotic spindles recovered bipolarity after removing nocodazole, they remained multipolar after removing C75. FIG. 2F) is a series of time-lapse images of a live HeLa cell expressing GFP:tubulin after treatment with C75 as shown in 2D) and 2E). The scale bar for all cells is 10 μm. FIG. 2G) is a schematic showing the putative target for C75. […]
# C75 was also tested for efficacy in different cancer cell lines. […] To further assess the role of C75 in affecting centrosomes, HeLa cells were treated with C75 for a short period of time (5 minutes), then C75 was removed and the cells were analyzed for spindle phenotypes (schematic in FIG. 2D). […]
# [2] = tested on: HeLa cells; test: Mitotic arrest (percentage of cells in mitosis) in HeLa cells; assay type: cell-based, human
# Description: There were more rounded mitotic cells after C75 treatment in comparison to the control. FIG. 1B) is a line graph showing the percentage of HeLa and HFF1 cells in mitosis after treatment with various concentrations of C75 for 8 hours. The bars indicate standard deviation. FIG. 1C) is a series of images showing cells that were fixed and co-stained for tubulin (microtubules) and DAPI (DNA). Treatment of HeLa cells with 300 nM C75 caused the mitotic spindles to be disorganized, while they were not affected in HFF1 cells. […] The scale bar for the cells is 10 μm. FIG. 1D) is a cartoon schematic showing the key features of a metaphase cell.
# FIG. 2A) is a line graph showing the percentage of HCT116 (p53−/−) cells, A549 cells, HeLa cells and H1299 cells in mitosis after treatment with various concentrations of C75 for one population doubling time. All of the cell lines show an increase in the proportion of mitotic cells after treatment with 200 nM C75. The bars indicate standard deviation. […] While the mitotic spindles were not dramatically altered by C75 in HFF1 cells, they were monopolar (as shown) or fragmented in the other cell types. […] The mitotic spindles were more strongly fragmented after C75 treatment in these cells vs. the cells in FIG. 2B). […] While mitotic spindles recovered bipolarity after removing nocodazole, they remained multipolar after removing C75. FIG. 2F) is a series of time-lapse images of a live HeLa cell expressing GFP:tubulin after treatment with C75 as shown in 2D) and 2E). The scale bar for all cells is 10 μm. FIG. 2G) is a schematic showing the putative target for C75. Healthy cells have two centrosomes that separate and form a bipolar spindle, while cancer cells have aberrant centrosomes that cluster to form ‘pseudo’ bipolar spindles, and C75 may target this process and their integrity.
# FIG. 3A) is a line graph showing the percentage of mitotic HeLa or HFF1 cells treated with a range of paclitaxel (Taxol™; tubulin-targeting drug) concentrations+/−C75 as indicated. The bars indicate standard deviation. […]
smiles,measurement,setting,value
COc1ccc(S(=O)(=O)N2Cc3ccccc3-c3sc(Br)cc32)cc1 [Compound C75],mitotic spindle phenotype,[1],"mix of monopolar, bipolar and multipolar spindles"
same,effect of C75 on selectivity of paclitaxel and nocodazole,"[2]; HeLa vs. HFF1 cells, percentage of mitotic cells, tubulin drug +/- C75",enhances the selectivity
same,concentration causing mitotic arrest,"[2]; HeLa, within one population doubling time",100 to 200 nM
same,"selectivity of mitotic arrest, HeLa vs. HFF1","[2]; nanomolar concentrations, 8 hours",selectively causes mitotic arrest
